Measurements: patent US8420675B2, “Aminotetrahydroindazoloacetic acids” (Hoffmann-La Roche Inc., priority 2008, dated 2013)

The compounds below were run against T1, human CRTH2 (Homo sapiens, UniProt Q9Y5Y4) (assay: Human CRTH2 Receptor Binding Assay (whole cell, [3H]ramatroban competition)). Details: CHO-K1 cells expressing human CRTH2 and G-alpha16; 20 nM [3H]ramatroban; 1 hour, room temperature.
T1 construct: expressed in transfected cells
T1 sequence (Q9Y5Y4 1-395): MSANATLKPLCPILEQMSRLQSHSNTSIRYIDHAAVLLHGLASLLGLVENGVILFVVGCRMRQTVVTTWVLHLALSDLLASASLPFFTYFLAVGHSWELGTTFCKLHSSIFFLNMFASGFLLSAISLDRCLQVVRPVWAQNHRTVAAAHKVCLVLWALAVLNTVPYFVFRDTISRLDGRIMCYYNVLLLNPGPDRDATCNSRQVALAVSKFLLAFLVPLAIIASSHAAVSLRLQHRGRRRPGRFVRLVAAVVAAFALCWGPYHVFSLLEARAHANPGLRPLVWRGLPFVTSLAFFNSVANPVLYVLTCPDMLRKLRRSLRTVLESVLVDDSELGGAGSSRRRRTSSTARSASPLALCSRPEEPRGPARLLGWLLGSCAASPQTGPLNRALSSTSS
Summary of the method: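 CHO-K1 cells stably co-expressing human CRTH2 and G-alpha16, 1.5×10^5 per reaction, incubated 1 hour at room temperature with 20 nM [3H]ramatroban in PBS containing 10 mM MgCl2 and 0.06% BSA. Non-specific binding defined with 10 μM 15(R)-15-methyl PGD2. IC50 from 7 concentrations by 4-parameter logistic fit of specific binding inhibition.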

Compound	IC50 [nM]
O=C(O)CCn1ncc2c1CCC[C@H]2NS(=O)(=O)c1cnc(Oc2ccc(Cl)cc2)c(Br)c1 [Example 2-12a, 3-{(R)-4-[5-Bromo-6-(4-chloro-phenoxy)-pyridine-3-sulfonylamino]-4,5,6,7-tetrahydro-indazol-1-yl}-propionic acid]	30.3
O=C(O)CCn1ncc2c1CCC[C@H]2NS(=O)(=O)c1ccc(Oc2ccccc2Cl)c(Cl)c1 [Example 5-7a, 3-{(R)-4-[3-Chloro-4-(2-chloro-phenoxy)-benzenesulfonylamino]-4,5,6,7-tetrahydro-indazol-1-yl}-propionic acid]	53
CN([C@@H]1CCCc2c1cnn2CC(=O)O)S(=O)(=O)c1ccc(Oc2ccc(F)cc2Cl)cc1Cl [Example 9-9a, ((R)-4-{[2-Chloro-4-(2-chloro-4-fluoro-phenoxy)-benzenesulfonyl]-methyl-amino}-4,5,6,7-tetrahydro-indazol-1-yl)-acetic acid]	70
Cc1ccc(Oc2ccc(S(=O)(=O)N(C)[C@@H]3CCCc4c3cnn4CC(=O)O)cc2Cl)c(C)c1 [Example 9-19a, ((R)-4-{[3-Chloro-4-(2,4-dimethyl-phenoxy)-benzenesulfonyl]-methyl-amino}-4,5,6,7-tetrahydro-indazol-1-yl)-acetic acid]	11.4
N#Cc1ccc(Oc2ncc(S(=O)(=O)NC3CCCc4c3cnn4CC(=O)O)cc2Br)cc1 (stereo not shown) [Example 2-4a, {4-[5-Bromo-6-(4-cyano-phenoxy)-pyridine-3-sulfonylamino]-4,5,6,7-tetrahydro-indazol-1-yl}-acetic acid]	10.3
COc1cc(Cl)ccc1Oc1ccc(S(=O)(=O)N(C)[C@@H]2CCCc3c2cnn3CC(=O)O)cc1Cl [Example 9-20a, ((R)-4-{[3-Chloro-4-(4-chloro-2-methoxy-phenoxy)-benzenesulfonyl]-methyl-amino}-4,5,6,7-tetrahydro-indazol-1-yl)-acetic acid]	10.2
O=C(O)Cn1ncc2c1CCCC2NS(=O)(=O)c1ccc(Oc2cccc(Cl)c2)cc1 (stereo not shown) [Example 5-2a, {4-[4-(3-Chloro-phenoxy)-benzenesulfonylamino]-4,5,6,7-tetrahydro-indazol-1-yl}-acetic acid]	202
O=C(O)Cn1ncc2c1CCC[C@H]2NS(=O)(=O)c1cnc(Oc2ccc(Cl)cc2)c(Br)c1 [Example 2-8a, {(R)-4-[5-Bromo-6-(4-chloro-phenoxy)-pyridine-3-sulfonylamino]-4,5,6,7-tetrahydro-indazol-1-yl}-acetic acid]	7.8
CN([C@@H]1CCCc2c1cnn2CC(=O)O)S(=O)(=O)c1cnc(Oc2ccc(F)cc2)c(Br)c1 [Example 6-12a, ((R)-4-{[5-Bromo-6-(4-fluoro-phenoxy)-pyridine-3-sulfonyl]-methyl-amino}-4,5,6,7-tetrahydro-indazol-1-yl)-acetic acid]	8.4
CN([C@@H]1CCCc2c1cnn2CC(=O)O)S(=O)(=O)c1cnc(Oc2ccccc2Cl)c(Br)c1 [Example 6-2a, ((R)-4-{[5-Bromo-6-(2-chloro-phenoxy)-pyridine-3-sulfonyl]-methyl-amino}-4,5,6,7-tetrahydro-indazol-1-yl)-acetic acid]	6.6
CN([C@@H]1CCCc2c1cnn2CC(=O)O)S(=O)(=O)c1ccc(Oc2ccc(S(C)(=O)=O)cc2)c(Cl)c1 [Example 9-25a, ((R)-4-{[3-Chloro-4-(4-methanesulfonyl-phenoxy)-benzenesulfonyl]-methyl-amino}-4,5,6,7-tetrahydro-indazol-1-yl)-acetic acid]	20.9
CC(C)c1cc(S(=O)(=O)N(C)[C@@H]2CCCc3c2cnn3CC(=O)O)cnc1Oc1ccc(Cl)cc1 [Example 7-1a, ((R)-4-{[6-(4-Chloro-phenoxy)-5-isopropyl-pyridine-3-sulfonyl]-methyl-amino}-4,5,6,7-tetrahydro-indazol-1-yl)-acetic acid]	12.1
O=C(O)Cn1ncc2c1CCCC2NS(=O)(=O)c1ccc(Oc2ccccc2)cc1 (stereo not shown) [Example 1-3a, [4-(4-Phenoxy-benzenesulfonylamino)-4,5,6,7-tetrahydro-indazol-1-yl]-acetic acid]	199
Cc1ccc(Oc2ccc(S(=O)(=O)N(C)[C@@H]3CCCc4c3cnn4CC(=O)O)cc2Cl)cc1 [Example 9-15a, {(R)-4-[(3-Chloro-4-p-tolyloxy-benzenesulfonyl)-methyl-amino]-4,5,6,7-tetrahydro-indazol-1-yl}-acetic acid]	10.3
CN([C@@H]1CCCc2c1cnn2CC(=O)O)S(=O)(=O)c1cnc(Oc2cc(Cl)cc(Cl)c2)c(Br)c1 [Example 6-3a, ((R)-4-{[5-Bromo-6-(3,5-dichloro-phenoxy)-pyridine-3-sulfonyl]-methyl-amino}-4,5,6,7-tetrahydro-indazol-1-yl)-acetic acid]	26.5
CN([C@@H]1CCCc2c1cnn2CC(=O)O)S(=O)(=O)c1ccc(Oc2ccccc2Cl)c(Cl)c1 [Example 9-1a, ((R)-4-{[3-Chloro-4-(2-chloro-phenoxy)-benzenesulfonyl]-methyl-amino}-4,5,6,7-tetrahydro-indazol-1-yl)-acetic acid]	5.5

The remaining lines, values ahead:

IC50 [nM]	Compound
11.8	CN([C@@H]1CCCc2c1cnn2CC(=O)O)S(=O)(=O)c1ccc(Oc2ccc(OC(F)(F)F)cc2)c(Cl)c1 [Example 9-28a, ((R)-4-{[3-Chloro-4-(4-trifluoromethoxy-phenoxy)-benzenesulfonyl]-methyl-amino}-4,5,6,7-tetrahydro-indazol-1-yl)-acetic acid]
356	O=C(O)Cn1ncc2c1CCCC2NS(=O)(=O)c1cccc(NC(=O)c2ccccc2)c1 (stereo not shown) [Example 14-1a, [4-(3-Benzoylamino-benzenesulfonylamino)-4,5,6,7-tetrahydro-indazol-1-yl]-acetic acid]
6.6	CS(=O)(=O)c1cccc(-c2ccc(S(=O)(=O)N[C@@H]3CCCc4c3cnn4CC(=O)O)cc2)c1 [Example 10-28a, [(R)-4-(3′-Methanesulfonyl-biphenyl-4-sulfonylamino)-4,5,6,7-tetrahydro-indazol-1-yl]-acetic acid]
412	O=C(O)Cn1ncc2c1CCCC2NS(=O)(=O)c1ccc(-c2ccccc2)c(F)c1 (stereo not shown) [Example 10-8a, [4-(2-Fluoro-biphenyl-4-sulfonylamino)-4,5,6,7-tetrahydro-indazol-1-yl]-acetic acid]
8	Cc1cc(F)ccc1Oc1ccc(S(=O)(=O)N(C)[C@@H]2CCCc3c2cnn3CC(=O)O)cc1Cl [Example 9-38a, ((R)-4-{[3-Chloro-4-(4-fluoro-2-methyl-phenoxy)-benzenesulfonyl]-methyl-amino}-4,5,6,7-tetrahydro-indazol-1-yl)-acetic acid]
22.6	CN([C@@H]1CCCc2c1cnn2CC(=O)O)S(=O)(=O)c1cc(Oc2ccc(F)cc2)cc(C(F)(F)F)c1 [Example 9-42a, ((R)-4-{[3-(4-Fluoro-phenoxy)-5-trifluoromethyl-benzenesulfonyl]-methyl-amino}-4,5,6,7-tetrahydro-indazol-1-yl)-acetic acid]
262	O=C(O)Cn1ncc2c1CCCC2NS(=O)(=O)c1ccc(-c2ccccc2C(F)(F)F)cc1 (stereo not shown) [Example 10-17a, [4-(2′-Trifluoromethyl-biphenyl-4-sulfonylamino)-4,5,6,7-tetrahydro-indazol-1-yl]-acetic acid]
321	N#Cc1cccc(-c2ccc(S(=O)(=O)NC3CCCc4c3cnn4CC(=O)O)cc2)c1 (stereo not shown) [Example 10-11a, [4-(3′-Cyano-biphenyl-4-sulfonylamino)-4,5,6,7-tetrahydro-indazol-1-yl]-acetic acid]
66.1	O=C(O)Cn1ncc2c1CCCC2NS(=O)(=O)c1cc(-c2ccccc2)cc(C(F)(F)F)c1 (stereo not shown) [Example 10-16a, [4-(5-Trifluoromethyl-biphenyl-3-sulfonylamino)-4,5,6,7-tetrahydro-indazol-1-yl]-acetic acid]
